US5095006A, “Renin inhibitors having all retro-inverted peptide bonds” (Bayer Aktiengesellschaft, priority 1989, dated 1992)

molecular target: T1, endogenous renin from human plasma (Homo sapiens, UniProt P00797); assay: In vitro test: inhibition of plasma renin activity (angiotensin I formation, radioimmunoassay); assay type: biochemical; details: pooled human plasma, 37° C., pH 5.6
T1 construct: rate of formation of angiotensin I from endogenous angiotensinogen and renin; from tissue; host or cells: pooled human plasma (EDTA)
T1 sequence (P00797 67-406): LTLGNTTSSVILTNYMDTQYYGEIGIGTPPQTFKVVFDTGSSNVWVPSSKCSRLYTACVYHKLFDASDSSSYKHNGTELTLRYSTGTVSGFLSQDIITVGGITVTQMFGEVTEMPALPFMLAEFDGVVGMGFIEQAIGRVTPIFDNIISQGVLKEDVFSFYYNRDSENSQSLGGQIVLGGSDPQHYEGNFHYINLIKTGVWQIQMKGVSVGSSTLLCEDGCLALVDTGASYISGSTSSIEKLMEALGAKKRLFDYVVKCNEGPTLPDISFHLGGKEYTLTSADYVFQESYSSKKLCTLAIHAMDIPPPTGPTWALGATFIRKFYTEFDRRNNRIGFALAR
Protocol: The plasma renin activity (PRA) is determined by incubation at 37° C. as the rate of formation of angiotensin I from endogenous angiotensinogen and renin. […] The angiotensin I formed per unit of time is determined by radioimmunoassay (Sorin Biomedica, Italy).
The percentage inhibition of the plasma renin activity is calculated by comparison […].

Inhibition at 0.05 mg/ml [%] | Structure (SMILES)
100 | O=C(N[C@H](Cc1cnc[nH]1)C(=O)N[C@H](Cc1ccccc1)C(=O)OCc1ccccc1)C(Cc1ccccc1)C(O)CN1C(=O)c2ccccc2C1=O (stereo partly drawn) [Example 70, 4-(N-Phthalyl)amino-2-R,S-benzyl-3R,S-hydroxybutyryl-D-histidyl-D-phenylalanine benzyl ester]
92 | O=C(O)[C@@H](Cc1ccccc1)NC(=O)[C@@H](Cc1c[nH]cn1)NC(=O)[C@H](Cc1ccccc1)[C@@H](O)CN1C(=O)c2ccccc2C1=O [Example 71, 4-(N-Phthalyl)amino-2-R,S-benzyl-3R,S-hydroxybutyryl-D-histidyl-D-phenylalanine]
100 | O=C(NC1CCCC1)[C@@H](Cc1ccccc1)NC(=O)[C@@H](Cc1c[nH]cn1)NC(=O)[C@H](Cc1ccccc1)[C@@H](O)CN1C(=O)c2ccccc2C1=O [Example 72, 4-(N-Phthalyl)amino-2-R,S-benzyl-3R,S-hydroxybutyryl-D-histidyl-D-phenylalanine(cyclopentyl)amide]
88 | COC(=O)[C@@H](Cc1ccccc1)NC(=O)[C@@H](Cc1cnc[nH]1)NC(=O)C(Cc1ccccc1)C(O)CN(Cc1ccccc1)C(=O)Cc1cccnc1 (stereo partly drawn) [Example 103, 4-[N-Benzyl-N-(3-pyridyl)acetyl]amino-2-R,S-benzyl-3-R,S-hydroxybutyryl-D-histidyl-D-phenylalanine methyl ester]

Second part, the compound before the results:

Structure (SMILES) | Inhibition at 0.05 mg/ml [%]
CC(C)(C)OC(=O)N(Cc1ccccc1)CC(O)C(Cc1ccccc1)C(=O)N[C@H](Cc1c[nH]cn1)C(=O)O (stereo partly drawn) [Example 74, 4-(N-tert.-Butoxycarbonyl-N-benzyl)amino-2-R,S-benzyl-3-R,S-hydroxybutyryl-D-histidine] | 93
CC(C)(C)OC(=O)N(Cc1ccccc1)CC(O)C(Cc1ccccc1)C(=O)N[C@H](Cc1cnc[nH]1)C(=O)N[C@H](Cc1ccccc1)C(=O)O (stereo partly drawn) [Example 76, 4-(N-tert.-Butoxycarbonyl-N-benzyl)amino-2-R,S-benzyl-3-R,S-hydroxybutyryl-D-histidyl-D-phenylalanine] | 78
CC(C)(C)OC(=O)N(Cc1ccccc1)C[C@H](O)[C@@H](Cc1ccccc1)C(=O)N[C@H](Cc1c[nH]cn1)C(=O)N[C@H](Cc1ccccc1)C(=O)N1CCOCC1 [Example 77, 4-(N-tert.-Butoxycarbonyl-N-benzyl)amino-2-R,S-benzyl-3-R,S-hydroxybutyryl-D-histidyl-D-phenylalanine-(N-morpholino)amide] | 100
CC(C)CNC(=O)[C@@H](Cc1ccccc1)NC(=O)[C@@H](Cc1c[nH]cn1)NC(=O)[C@H](Cc1ccccc1)[C@@H](O)CNC(=O)OC(C)(C)C [Example 78, (N-tert.-Butoxycarbonyl)amino-2-R,S-benzyl-3-R,S-hydroxybutyryl-D-histidyl-D-phenylalanine-(2-methylpropyl)amide] | 100
CC(C)CNC(=O)[C@@H](Cc1ccccc1)NC(=O)[C@@H](Cc1cnc[nH]1)NC(=O)C(Cc1ccccc1)C(O)CNC(=O)c1ccccc1C(=O)O (stereo partly drawn) [Example 90, 4-[N-(2-Carboxy)benzoyl]amino-2-R,S-benzyl-3-R,S-hydroxybutyryl-D-histidyl-D-phenylalanine-(2-methyl) propylamide] | 63
